Measured values taken from patent US20240409536A1, “COMPOUNDS AND METHODS FOR MODULATING SPLICING” (REMIX THERAPEUTICS INC., priority 2021, published 2024).

Assays:
HiBiT-tagged MYB protein = assay: HiBiT protein abundance assay, MYB (K562 HiBiT knock-in cells); assay type: cell-based, human; settings: 24 hours
Description: (§1) Compounds described herein were used to screen for effects on quantitative protein abundance using a HiBit assay system (Promega). Quantitative protein abundance was determined by measuring the protein levels of HiBit-tagged protein targets expressed in cell culture via luminescence using the Nano-Glo HiBiT Lytic Detection System, which uses a split complementation assay format to reconstitute NanoBiT enzyme to generate a luminescent signal. A protein abundance assay was developed such that endogenous protein targets could be modified with the HiBiT peptide tag and their abundance could be assessed after compound treatment. Briefly, K562 cell lines containing a HiBiT-modification were treated with various compounds described herein (e.g., compounds of Formulas (I), (II), or (III)). After treatment for 24 hours, the protein abundance of a specific target was determined by measuring luminescence.
(§2) • Promega Nano-Glo HiBiT Lytic Detection System (cat #N3030) • Corning 384-well TC-treated microplates (cat #3570) • Synthego Engineered Cells Knock-In Clones
(§3) Cells were maintained in IMDM with 10% FBS. Before the assay, cells were diluted with […] growth media (IMDM+1% FBS media) and were seeded in a 384-well plate at a density of 10000 cells/well (for each cell line listed in Table 6). Each compound was prepared as a 10-point 3-fold serial dilution in DMSO with the top dose at a final concentration of 10 μM in the well. Unmodified K562 cells were added at the previously specified density with DMSO to serve as an assay baseline and positive control (PC) and DMSO only with the respective modified cell lines was added to the negative control (NC) columns. Final DMSO concentration was kept at or below 0.25%. Treated cell plates were placed in an incubator at 37° C. with 5% CO2 for 24 hours. After 24 hours, 25 μL of Complete HiBit Lytic reagent was added to each well at room temperature (e.g. one plate requiring 10 mL Lytic Buffer, 100 μL LgBiT Protein, 200 μL Lytic Substrate), shaken for 5 minutes at 600 RPM, then left to sit for 10 minutes for signal to stabilize before reading on a Spark Cyto plate reader (Tecan) with a 500 ms measurement time.
(§4) To determine compound effects on protein abundance of each target in Table 6, the percent response for each respective cell line was calculated at each compound concentration as follows:
(§5) For the normalized response at each concentration, a four-parameter logistical regression was fit to the data and the response was interpolated at the 50% value to determine a concentration for protein abundance at 50% (IC50) the untreated control.

K562 cells = assay: Cell Titer Glo 2.0 cell viability assay in K562 cells; settings: 72 hours
Target C = assay: HiBiT protein abundance assay, Target C (K562 HiBiT knock-in cells); assay type: cell-based, human; settings: 24 hours
Description: as §2, §3, §4, §5

HiBiT-tagged HTT protein = assay: HiBiT protein abundance assay, HTT (K562 HiBiT knock-in cells); assay type: cell-based, human; settings: 24 hours
Description: as §1, §2, §3, §4, §5

SMN2 mRNA = assay: Gene panel canonical junction qPCR assay, SMN2 CJ mRNA decrease; assay type: cell-based, human; settings: Homo sapiens, canonical junction qPCR, read-out: SMN2 IC50 (decrease in CJ mRNA levels)
Outline: (§6)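 A673 or K562 cells treated with compound; canonical exon-exon junction mRNA quantified by cDNA synthesis and RT-qPCR with junction-spanning primer/probe, normalized to GAPDH, GUSB or PPIA and DMSO (2^(−ΔΔCt)). Percent response from set ΔCt assay windows fitted to 4-parameter logistic; IC50 for CJ decrease.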

HTT mRNA [1] = assay: Splicing RT-qPCR assay, HTT canonical (CJ) and alternative (AJ) junction mRNA; assay type: cell-based; settings: Homo sapiens, A673 or K562 cells, 24 hours; for IC50: decrease in canonical junction mRNA; for AC50: increase in alternative junction mRNA
Description: (§7) Compounds described herein were used to modulate RNA transcript abundance in cells. The expression of a target mRNA was measured by detecting the formation of an exon-exon junction in the canonical transcript (CJ). A compound mediated exon-inclusion event was detected by observing an increase in formation of a new junction with an alternative exon (AJ). Real-time qPCR assays were used to detect these splicing switches and interrogate the potency of various compounds towards different target genes. A high-throughput real time quantitative PCR (RT-qPCR) assay was developed to measure these two isoforms of the mRNA (CJ and AJ) for exemplary genes, such as HTT, SMN2, and MYB, together with a control housekeeping gene, GAPDH or GUSB or PPIA, used for normalization. Briefly, the A673 or K562 cell line was treated with various compounds described herein (e.g., compounds of Formula (I), (I), or (III)). After treatment, the levels of the HTT, MYB, or SMN2 mRNA targets were determined from each sample of cell lysate by cDNA synthesis followed by qPCR.
(§8) • Cells-to-CT 1-step kit: ThermoFisher A25602, Cells-to-CT lysis reagent: ThermoFisher 4391851C, TaqMan™ Fast Virus 1-Step Master Mix: ThermoFisher 4444436 • GAPDH: VIC-PL, ThermoFisher 4326317E (Assay: Hs99999905_ml)—used for K562/suspension cell lines • GUSB: VIC-PL, ThermoFisher 4326320E (Assay: Hs99999908_ml)—used for K562/suspension cell lines • PPIA: VIC-PL, ThermoFisher 4326316E (Assay: Hs99999904_ml)—used for A673/adherent cell lines
(§9) The A673 cell line was cultured in DMEM with 10% FBS. Cells were diluted with full growth media and plated in a 96-well plate (15,000 cells in 100 ul media per well). The plate was incubated at 37° C. with 5% CO2 for 24 hours to allow cells to adhere. An 11-point 3-fold serial dilution of the compounds was made in DMSO then diluted in media in an intermediate plate. Compounds were transferred from the intermediate plate to the cell plate with the top dose at a final concentration of 10 uM in the well. Final DMSO concentration was kept at or below 0.25%. The cell plate was returned to the incubator at 37° C. with 5% CO2 for an additional 24 hours.
(§10) The K562 cell line was cultured in IMDM with 10% FBS. For K562, cells were diluted with full growth media and plated in either a 96-well plate (50,000 cells in 50 uL media per well) or a 384-well plate (8,000-40,000 cells in 45 uL media per well). An 11-point 3-fold serial dilution of the compounds were made in DMSO then diluted in media in an intermediate plate. Compound was transferred from the intermediate plate to the cell plate with the top dose at a final concentration of 10 uM in the well. Final DMSO concentration was kept at or below 0.25%. Final volume was 100 uL for 96-well plate and 50 uL for 384-well plate. The cell plate was then placed in an incubator at 37° C. with 5% CO2 for 24 hours.
(§11) The cells were then gently washed with 50 uL-100 uL cold PBS before proceeding to addition of lysis buffer. 30 uL-50 uL of room temperature lysis buffer with DNAse I (and optionally RNAsin) was added to each well. Cells were shaken/mixed thoroughly at room temperature for 5-10 minutes for lysis to take place and then 3 uL-5 uL of room temperature stop solution was added and wells were shaken/mixed again. After 2-5 minutes, the cell lysate plate was transferred to ice for RT-qPCR reaction setup. The lysates could also be frozen at −80° C. for later use.
(§12) In some cases, a direct lysis buffer was used. An appropriate volume of 3×lysis buffer (10 mM Tris, 150 mM NaCl, 1.5%-2.5% Igepal and 0.1-1 U/uL RNAsin, pH 7.4) was directly added to either K562 or A673 cells in media and mixed by pipetting 3 times. The plates were then incubated at room temperature with shaking/rocking for 20-50 minutes to allow for lysis to take place. After this time, the cell lysate plate was transferred to ice to set up for the RT-qPCR reactions. The lysates could also be frozen at −80° C. for later use. […]

HTT mRNA [2] = assay: Gene panel canonical junction qPCR assay, HTT CJ mRNA decrease; assay type: cell-based, human; settings: Homo sapiens, canonical junction qPCR, read-out: HTT IC50 (decrease in CJ mRNA levels)
Outline: as §6

MYB mRNA [3] = assay: Splicing RT-qPCR assay, MYB canonical (CJ) and alternative (AJ) junction mRNA; assay type: cell-based; settings: Homo sapiens, A673 or K562 cells, 24 hours; for IC50: decrease in canonical junction mRNA; for AC50: increase in alternative junction mRNA
Description: as §7, §8, §9, §10, §11, §12

Target C mRNA = assay: Gene panel canonical junction qPCR assay, Target C CJ mRNA decrease; assay type: cell-based; settings: Homo sapiens, canonical junction qPCR, read-out: Target C IC50 (decrease in CJ mRNA levels)
Outline: as §6

MYB mRNA [4] = assay: Gene panel canonical junction qPCR assay, MYB CJ mRNA decrease; assay type: cell-based, human; settings: Homo sapiens, canonical junction qPCR, read-out: MYB IC50 (decrease in CJ mRNA levels)
Outline: as §6

| SMILES | IC50 (HiBiT-tagged MYB protein) [nM] | Viability (K562 cells) | IC50 (Target C) [nM] | IC50 (HiBiT-tagged HTT protein) [nM] | IC50 (SMN2 mRNA) [nM] | IC50 (HTT mRNA [1]) [nM] | AC50 (HTT mRNA [1]) [nM] | IC50 (HTT mRNA [2]) [nM] | IC50 (MYB mRNA [3]) [nM] | AC50 (MYB mRNA [3]) [nM] | IC50 (Target C mRNA) [nM] | IC50 (MYB mRNA [4]) [nM] |
| --- | --- | --- | --- | --- | --- | --- | --- | --- | --- | --- | --- | --- |
| Cc1cn2cc(NC(=O)c3ccc(N4CCNCC4)c4ccnnc34)cc(F)c2n1 [Compound 101] | < 100 | B (B represents 100-1000 nM) | 100 to 1000 | 100 to 1000 |  |  |  |  |  |  |  |  |
| Cc1cn2cc(NC(=O)c3ccc(C4CCNCC4)c4ccnnc34)cc(F)c2n1 [Compound 103] | < 100 | A (A represents <100 nM) | 1000 to 10000 | 100 to 1000 |  |  |  |  |  |  |  |  |
| COCCOc1ncc2c(N3CCNCC3)ccc(C(=O)Nc3cc(F)c4nc(C)cn4c3)c2n1 [Compound 180, N-{8-fluoro-2-methylimidazo[1,2-a]pyridin-6-yl}-2-(2-methoxyethoxy)-5-(piperazin-1-yl)quinazoline-8-carboxamide; trifluoroacetic acid] | > 10000 |  | > 10000 | > 10000 |  |  |  |  |  |  |  |  |
| Cc1cn2cc(NC(=O)c3c(F)cc(N4CCNCC4)c4ccnnc34)cc(F)c2n1 [Compound 350] |  |  |  |  | 100 to 1000 | > 10000 | > 10000 | > 10000 | 1000 to 10000 | 1000 to 10000 | > 10000 | 1000 to 10000 |
| Cc1cn2cc(NC(=O)c3ccc([C@H]4C[C@@H](C)N[C@@H](C)C4)c4nccnc34)cc(F)c2n1 [Compound 379] |  | B (B represents 100-1000 nM) |  |  | < 100 | 1000 to 10000 | 1000 to 10000 | 1000 to 10000 | 100 to 1000 | 100 to 1000 | > 10000 | 100 to 1000 |
| Cc1cn2cc(NC(=O)c3ccc([C@@H]4C[C@@H](C)N[C@@H](C)C4)c4nccnc34)cc(F)c2n1 [Compound 380] |  | B (B represents 100-1000 nM) |  |  | < 100 | 100 to 1000 | 100 to 1000 | 100 to 1000 | < 100 | < 100 | 100 to 1000 | < 100 |
| COc1nc(NC(=O)c2ccc(N3C[C@H](C)N[C@@H](C)C3)c3nccnc23)cn2cc(C)nc12 [Compound 381] |  | B (B represents 100-1000 nM) |  |  | < 100 | > 10000 | > 10000 | > 10000 | 100 to 1000 | 100 to 1000 | > 10000 | 100 to 1000 |
| Cc1cn2cc(NC(=O)c3ccc(N4C[C@H](C)N[C@@H](C)C4)c4cccnc34)cc(F)c2n1 [Compound 382] |  | B (B represents 100-1000 nM) |  |  | < 100 | 1000 to 10000 | 1000 to 10000 | 1000 to 10000 | 100 to 1000 | < 100 | 1000 to 10000 | 100 to 1000 |
| COc1nc(NC(=O)c2ccc(N3C[C@@H](C)N[C@@H](C)C3)c3cccnc23)cn2cc(C)nc12 [Compound 383] |  | B (B represents 100-1000 nM) |  |  | < 100 | 1000 to 10000 | 1000 to 10000 | 1000 to 10000 | 100 to 1000 | 100 to 1000 | 1000 to 10000 | 100 to 1000 |
| COc1nc(NC(=O)c2ccc(N3C[C@H](C)N[C@@H](C)C3)c3cccnc23)cn2cc(C)nc12 [Compound 384] |  | B (B represents 100-1000 nM) |  |  | < 100 | 1000 to 10000 | 1000 to 10000 | 1000 to 10000 | < 100 | < 100 | > 10000 | < 100 |
| COc1ccc2c(N3C[C@H](C)N[C@@H](C)C3)ccc(C(=O)Nc3cc(F)c4nc(C)cn4c3)c2n1 [Compound 385] |  | B (B represents 100-1000 nM) |  |  | < 100 | 1000 to 10000 | 1000 to 10000 | 1000 to 10000 | < 100 | < 100 | > 10000 | < 100 |
| COc1ncc2c(N3C[C@H](C)N[C@@H](C)C3)ccc(C(=O)Nc3cc(F)c4nc(C)cn4c3)c2n1 [Compound 386] |  |  |  |  | < 100 | 100 to 1000 | 100 to 1000 | 100 to 1000 | < 100 | < 100 | 100 to 1000 | < 100 |
| COc1ncc2c(N3C[C@H](C)N[C@@H](C)C3)ccc(C(=O)Nc3cn4cc(C)nc4c(OC)n3)c2n1 [Compound 387] |  | B (B represents 100-1000 nM) |  |  | < 100 | 1000 to 10000 | 1000 to 10000 | 1000 to 10000 | < 100 | < 100 | 1000 to 10000 | < 100 |
